Values after ≈ are worked out from the molar mass of the structure shown. Values joined by “and” are separate entries in the source; they are usually repeats but may differ in a detail not shown here. Equal entries are not always repeated.
Experiments:
[1] = Appearance of HP-β-CD solutions of KR-67607 prepared at various pH; format: physicochemical; conditions: solution before entrapment under alkaline conditions; 3% HP-β-CD, 0.15% KR-67607
Protocol: HP-β-CD aqueous solutions of various pH were prepared by adding 3% (w/v) appropriate amount of HP-β-CD to 0.08M NaOH aqueous solution, tertiary purified water, and 1M HCl aqueous solution. To each of the above different HP-β-CD solutions, 0.15% (w/v) KR-67607 was added and stirred for 1 hour, and then potassium dihydrogen phosphate, sodium chloride, and povidone K90 were mixed to a concentration of 0.68%, 0.435%, and 1.2% (w/v), respectively, to dissolve completely. The pH of the solution was adjusted to around 7.4 with 0.1 N HCl or 0.1 N NaOH aqueous solution, and then the total volume was adjusted by adding sterile purified water. The prepared solution was filtered through a 0.2 μm PVDF filter and evaluated for comparative appearance against a black background, and the results are shown in FIG. 5.

[2] = test system: GFAP, TNFα and BAX mRNA; experiment: RT-PCR of retinal tissue from ocular hypertension rabbits; format: in vivo, New Zealand White rabbit; conditions: after Example 33 dosing
Protocol: Following Example 33, in order to separate the sample (eyeball) to observe the glaucoma treatment effect on the drug in addition to the change in intraocular pressure caused by the drug administration, the eyeball was enucleated and about 0.2 mL of the aqueous humor was collected, and then the retina (including some choroid) was collected. The collected aqueous humor and retina were placed in 1.5 mL polypropylene tubes pre-marked with sample information, frozen in a deep freezer (approximately −80° C.) until analysis, and delivered to the test site for analysis.
RNA or proteins were extracted from the eyes and analyzed by RT-PCR and western blotting to compare the expression of genes and proteins that can confirm the glaucoma treatment effect or optic nerve protection effect.
RNA was extracted from the isolated retinal tissue and analyzed by RT-PCR to compare the expression of genes that can confirm the glaucoma treatment effect or retinal protection effect. The tissues were lysed using TrizolTM Reagent (Invitrogen, CA, US) to extract the soluble RNA, and the RNA was precipitated by adding isopropanol (100%; Sigma-aldrich, MO, US).
Subsequently, cDNA was synthesized from the isolated RNA using a cDNA synthesis kit (AccuPower RT Premix; Bioneer, KR) and used for RT-PCR. The primer information used for RT-PCR analysis is as follows.
The synthesized DNA strands were then analyzed after separation on a 1.5% agarose gel using gene-specific primers (FIG. 28).

[3] = test system: New Zealand White rabbit ocular hypertension model animals; experiment: IOP-lowering efficacy in rabbit ocular hypertension model (scleral vein ligation); format: in vivo
Protocol: This study was conducted in male New Zealand White rabbit ocular hypertension model animals (intraocular pressure ≥17 mmHg) induced by scleral vein ligation to determine the effectiveness of KR-67607 eye drops in reducing ocular hypertension after repeated twice daily ophthalmic administration for 11 days.
Sterile physiological saline (negative control), Xalatan, Timoptic, Trusopt, Xalacom, and KR-67607 eye drops were administered twice daily for 11 days, and mortality and general symptoms were monitored, body weight was measured, feed intake was measured, and intraocular pressure was measured.

[4] = Solubility by pH; format: physicochemical; conditions: stirred 12 hours
Protocol: 50 mL of pH 1 to 12 solution and tertiary purified water were taken precisely and placed in a 50 mL clear glass vial, and an excess amount (50 mg) of KR-67607 was weighed and added and stirred for 12 hours. Then, it was allowed to stand for 20 minutes to settle the undissolved excess of KR-67607, and the supernatant was taken and filtered through a 0.2 μm PVDF filter as a stock solution.
The standard was prepared by accurately weighing 15 mg of KR-67607, placing it in a 50 mL volumetric flask, using diluent (0.02 M potassium dihydrogen phosphate aqueous solution:acetonitrile=50:50 (v/v)) to completely dissolve/mark KR-67607, and filtering the liquid through a 0.45 μm PVDF filter as the standard.
The HPLC analysis conditions were as follows • Detector: ultraviolet-visible absorption spectrophotometer (measuring wavelength: 254 nm) • Column: 250×4.6 mm, 5μm, C18 packing column • Column temperature: 25±3° C. • Injection volume: 25 μL • Flow rate: 1 mL/min • Mobile Phase: Gradient

[5] = Solubility as a function of HP-β-CD concentration, without pH adjustment (purified water); format: physicochemical; conditions: no pH adjustment
Protocol: Various concentrations of HP-β-CD aqueous solutions were prepared by adding appropriate amounts of HP-β-CD at 0.5%, 1%, 2%, 3%, 4%, and 5% (w/v) in tertiary purified water. An excess of KR-67607 was added to the above HP-β-CD solution and stirred for 24 hours, then the supernatant was collected, filtered through a 0.2 μm PVDF filter, and 1 mL was added to a 10 mL volumetric flask and labeled with methanol.
The standard was 50 mg of KR-67607 accurately weighed and placed in a 50 mL volumetric flask and completely dissolved/stained with methanol. 1, 2, 4, 6, 8, 10 mL of the standard was accurately taken and placed in a 20 mL volumetric flask, and the one labeled with methanol was used as the standard.
The UV analysis conditions are as follows • Wavelength: 255 nm • Cell: 10 mm Quartz cell
KR-67607 concentration (μg/mL)=(UV absorbance of the sample−y-intercept of the standard curve)/(slope of the standard curve)×dilution factor of the sample. [Formula]

[6] = target: 11β-HSD1 (Homo sapiens, UniProt P28845); conditions: known; cited from earlier work
11β-HSD1, sequence (P28845 whole entry, species assumed): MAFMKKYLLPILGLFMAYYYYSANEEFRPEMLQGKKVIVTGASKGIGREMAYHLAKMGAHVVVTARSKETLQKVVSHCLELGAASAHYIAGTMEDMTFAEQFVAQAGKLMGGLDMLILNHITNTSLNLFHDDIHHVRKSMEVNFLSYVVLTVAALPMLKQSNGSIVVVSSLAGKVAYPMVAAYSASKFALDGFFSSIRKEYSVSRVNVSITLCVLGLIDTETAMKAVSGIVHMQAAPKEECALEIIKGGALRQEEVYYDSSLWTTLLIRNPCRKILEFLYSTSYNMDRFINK

CC1CN(CC(=O)NC2C3CC4CC2CC(C(N)=O)(C4)C3)S(=O)(=O)N(c2c(Cl)cc(C(F)(F)F)cc2Cl)C1 [KR-67607, (1s, 3R,4s,5S,7s)-4-(2-(6-(2,6-dichloro-4-(trifluoromethyl)phenyl)-4-methyl-1,1-dioxido-1,2,6-thiadiazinan-2-yl)acetamido)adamantane-1-carboxamide]
entrapment ability of HP-β-CD for KR-67607 (appearance, FIG. 5) [1]: enhanced | mRNA expression level of BAX in retinal tissues [2]: tended to decrease | mRNA expression level of GFAP in retinal tissues [2]: tended to decrease | mRNA expression level of TNFa in retinal tissues [2]: tended to decrease | IOP reduction greater than in the negative control group ([3]; Day 5): 34.4% | IOP reduction greater than in the negative control group ([3]; Day 8): 45.5% | IOP compared to 100% of pre-dose IOP ([3]; day 5, twice daily ophthalmic administration): 49.0% and 60.1% | greater IOP reduction than the Xalacom treatment group ([3]; day 8): 3.6% | Solubility ([4]; Purified water): 18.83 µg/mL (≈ 31.5 µM) | Solubility ([4]; pH 1 solution): 47.83 µg/mL (≈ 80.1 µM) | Solubility ([4]; pH 3 solution): 46.08 µg/mL (≈ 77.1 µM) | Solubility ([4]; pH 5 solution): 42.52 µg/mL (≈ 71.2 µM) | Solubility ([4]; pH 6 solution): 43.61 µg/mL (≈ 73 µM) | Solubility ([4]; pH 7 solution): 43.77 µg/mL (≈ 73.3 µM) | Solubility ([4]; pH 8 solution): 41.95 µg/mL (≈ 70.2 µM) | Solubility ([4]; pH 9 solution): 45.97 µg/mL (≈ 76.9 µM) | Solubility ([4]; pH 10 solution): 44.53 µg/mL (≈ 74.5 µM) | Solubility ([4]; pH 12 solution): 55.32 µg/mL (≈ 92.6 µM) | the solubility of KR-67607 ([5]; HP-β-CD 0.5 % w/v in purified water): 1200 µg/mL | the solubility of KR-67607 ([5]; HP-β-CD 1.0 % w/v in purified water): 2550 µg/mL | the solubility of KR-67607 ([5]; HP-β-CD 2.0 % w/v in purified water): 4230 µg/mL | the solubility of KR-67607 ([5]; HP-β-CD 3.0 % w/v in purified water): 6000 µg/mL | the solubility of KR-67607 ([5]; HP-β-CD 4.0 % w/v in purified water): 6910 µg/mL | the solubility of KR-67607 ([5]; HP-β-CD 5.0 % w/v in purified water): 7250 µg/mL | inhibitory activity against 11β-HSD1 [6]: good inhibitory activity

Reference: patent US20240108632A1, “PHARMACEUTICAL COMPOSITION FOR ADMINISTRATION AS OPHTHALMIC DROP TO PATIENT REQUIRING OPTIC NERVE PROTECTION” (PINOTBIO, INC., priority 2020, published 2024)
